Measurements published in patent publication US20240358672A1, “APPLICATION OF GENISTEIN AND ITS PHOSPHATE ESTER DERIVATIVE AND PHARMACEUTICAL COMPOSITION COMPRISING THE SAME” (National Taiwan University, priority 2023, published 2024).

Columns and labels:
C57BL/6J mice = format: in vivo; settings: Δ^9-THC 1 mg/kg plus genistein 50 mg/kg or rimonabant 3 mg/kg
Protocol: FIG. 7A: Isometric tension recordings of isolated mice thoracic aortas were performed using a wire myograph. Vascular concentration-dependent relaxation was induced by acetylcholine (ACh) in pre-constricted mouse thoracic arteries. […] FIG. 7C: Luminex analysis of inflammatory cytokines in plasma of C57BL/6J mice treated with vehicle control, Δ^9-THC, or Δ^9-THC plus genistein. […] FIG. 7E: Effect of Δ^9-THC and genistein on NF-κB phosphorylation in mouse thoracic artery. Total cell lysates were prepared, and the expressions of phosphor-NF-κB were analyzed by ELISA (upper left). Superoxide dismutase (SOD) activity of serum from mouse (bottom left). The effect of Δ^9-THC and genistein on NF-κB phosphorylation in mouse thoracic artery tissues (n=5). Total cell lysates were prepared, and the expressions of NF-κB, phosphorylated NF-κB, and β-actin were analyzed by western blot analysis (right panel). FIG. 7F: The levels reduced glutathione (GSH), Oxidized glutathione (GSSG), Total glutathione (T-GSH) and GSH/GSSG in the serum samples of mice were detected. Plasma isolated from C57BL/6J mice (n=5) treated with vehicle control, Δ^9-THC, genistein, or their combination every day for 30 days was analyzed by the glutathione colorimetric assay kit (BioVision, K261).
Genistein also rescued the oxidative stress protective-related gene expression (FIG. 7D). In addition, NF-κB phosphorylation and SOD expression in mouse serum were also attenuated with genistein (FIG. 7E). Δ^9-THC administration decreased circulating levels of the antioxidant glutathione, which was ameliorated with genistein cotreatment (FIG. 7F).

CB1 receptor = CB1 receptor (Homo sapiens, UniProt P21554); test: GTPase-Glo assay (in vitro GTPase assay); format: biochemical; settings: GTPase-Glo assay
CB1 receptor, sequence (P21554 whole entry): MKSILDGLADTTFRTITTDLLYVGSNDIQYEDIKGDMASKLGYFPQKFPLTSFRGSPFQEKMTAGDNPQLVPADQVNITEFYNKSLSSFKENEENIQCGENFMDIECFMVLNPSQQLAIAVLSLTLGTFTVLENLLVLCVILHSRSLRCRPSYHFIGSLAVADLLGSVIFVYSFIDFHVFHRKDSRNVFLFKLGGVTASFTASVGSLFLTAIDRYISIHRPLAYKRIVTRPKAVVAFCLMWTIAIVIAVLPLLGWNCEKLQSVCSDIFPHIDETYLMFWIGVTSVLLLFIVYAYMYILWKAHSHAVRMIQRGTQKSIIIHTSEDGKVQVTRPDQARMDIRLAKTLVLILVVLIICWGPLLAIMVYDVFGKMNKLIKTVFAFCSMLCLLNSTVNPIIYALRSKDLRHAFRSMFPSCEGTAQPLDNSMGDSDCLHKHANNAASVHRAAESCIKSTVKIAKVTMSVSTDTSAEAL

Row | SMILES | Δ^9-THC-induced mRNA expressions of inflammation-related genes in mouse thoracic artery tissues (C57BL/6J mice) | GTP turnover compared with Apo (CB1 receptor)
1 | Cc1c(C(=O)NN2CCCCC2)nn(-c2ccc(Cl)cc2Cl)c1-c1ccc(Cl)cc1 [rimonabant] | ameliorated | –
2 | C[C@H](NC(=O)C(C)(C)Oc1ccc(C(F)(F)F)cn1)[C@@H](Cc1ccc(Cl)cc1)c1cccc(C#N)c1 [taranabant] | – | decrease GTP turnover
